Assay results from patent US20180221343A1, “PHARMACEUTICAL COMPOSITION FOR PREVENTING OR TREATING MACULAR DEGENERATION” (KOREA RESEARCH INSTITUTE OF CHEMICAL TECHNOLOGY, priority 2011, published 2018).

Key:
[1] = tested on: rat corneal epithelial wound; assay: Corneal Wound Healing Assay (1); format: in vivo, SD rats; conditions: topical 10 mg/ml (1%) every 6 hour; observed at 0 and 18 hours
Experimental: (§1) SD rats (male, 8 weeks, 250 g) were used. Animal study protocol was in accordance with the Association for Research in Vision and Ophthalmology Statement for the Use of Animals in Ophthalmic and Visual Research. All animals were housed in individual cages and maintained under standard conditions (12 hour light-dark cycle).
(§2) 2. Corneal Epithelium Removal Rats were anesthetized by Zoletil® (50 mg/kg, Tiletamina 25 mg, Zolazepam 25 mg; Vibrac, Carros, France) and Rompun® (10 mg/kg, Bayer, France). The cornea was anesthetized by topical 0.5% proparacaine (Alcaine®; Alcon, Fort Worth, Tex., USA). After applying 0.5% proparacaine drops, 5.0 mm Trephine Blade® (Katena, Denville, N.J., USA) was placed and fixed firmly on the corneal surface. One drop of 20% ethanol were put into the tephine well and left in place for 30 seconds, then absorbed with a dry cellulose sponge (Merocel®; Medtronic Solan, Jacksonville, Fla., USA) and irrigated with normal saline. And the epithelium was removed in 6.0 mm diameter.
The drugs were each topically applied in 10 mg/ml (1%) concentration (in 5% DMSO, 10% PEG (Mw 400) and 85% saline (0.9% NaCl)) in every 6 hour.
(§3) The corneal wounds were captured by digital camera under cobalt blue light and the defect area was analyzed by Image J software (Ver 4.1, NIH). The significance between Vehicle and each group was analyzed by paired T-test, and the significance of the test was analyzed by One Way ANOVA analysis.

[2] = tested on: rat corneal epithelial wound; assay: Corneal Wound Healing Assay (2); format: in vivo, SD rats; conditions: topical 3 and 6 mg/ml every 6 hour; observed at 0 and 18 hours
Experimental: as §1
as §2, with “Rats” for “2. Corneal Epithelium Removal Rats”
The drugs were each topically applied in 3 mg/ml (0.3%) and 6 mg/ml (0.6%) concentrations (in 5% DMSO, 10% PEG (Mw 400) and 85% saline (0.9% NaCl)) in every 6 hour, respectively.
as §3

VEGF receptor 2 (FLK-1) = assay: Expression of VEGF receptor 2 (FLK-1) in corneal tissue by RT-PCR; format: in vivo, rats; conditions: subconjunctival injection 20 μl; KR 0.3 mg/ml, Avastin 10 mg/ml
Experimental: The tests were performed for confirming corneal angiogenesis as a marker. To a Trizole™ solution (200 μl), were added each corneal tissue obtained from the rats of Example 1. Total RNAs were isolated and then cDNAs were prepared by using a reverse transcriptase. Each cDNA (5 μl) was mixed with the primer set of FLK-1 and then PCR amplication was performed in a thermocycler under the following conditions; denaturation at 94° C. for 5 minutes, and then 35 cycles of denaturation at 94° C. for 20 seconds, annealing at 58° C. for 1 minute, and extension at 72° C. for 25 seconds. Each PCR product was loaded on 1% agarose gel; and the resulting ethidium bromide fluorescent bands were identified.

retinal angiogenesis = assay: Laser-induced retinal damage model, retinal angiogenesis by dextran-FITC fluorescence; format: in vivo, Brown Norway rats; conditions: Avastin 2.5 mg/ml, 10 μl into the vitreous humor; 2 weeks after administration
Experimental: The tests were performed by using Brown Norway rats (8 weeks old, male) as animals having retinal damage (15 rats for the experiment group; and 1 rat for normal group, respectively). The retinal Bruch's membrane of each Brown Norway rat was damaged using a Zeiss 532s laser at the intensity of […], 30 ms. On the third day after the laser-damaging, the drug was administered into the vitreous humor in order to observe the retinal vessels. The compound of the present invention, i.e., (2R,3R,4S)-6-amino-4-[N-(4-chlorophenyl)-N-(1H-imidazol-2-ylmethyl)amino]-3-hydroxy-2-methyl-2-dimethoxymethyl-3,4-dihydro-2H-1-benzopyran was administered with the solutions (10 μl of each solution) obtained by dissolving in PBS containing 30% PEG 400 and 10% DMSO, in the concentrations of 0.1 mg/ml and 0.3 mg/ml. Avastin was administered with the solution (10 μl) obtained by dissolving in PBS in the concentration of 2.5 mg/ml. In case of the control group, the PBS (10 μl) was administered. In addition, (2R,3R,4S)-6-amino-4-[N-(4-chlorophenyl)-N-(1H-imidazol-2-ylmethyl)amino]-3-hydroxy-2-methyl-2-dimethoxymethyl-3,4-dihydro-2H-1-benzopyran was intraperitoneally administered with the solution obtained by dissolving in PBS containing 30% PEG 400 and 10% DMSO, in the dose of 25 mg/kg. 2 weeks after the drug administrations, dextran-FITC was injected into the left ventricle in the dose of 25 mg/kg, followed by enucleating the eye after 5 minutes therefrom; and then fixing in a 10% formalin solution. The cornea and the eye lens were removed from the fixed eye, which was then observed under a fluorescence microscope. Angiogenesis was identified by the intensity and leakage of dextran-FITC in the laser-induced damage site; and the results thereof were shown in FIG. 7. The evaluations quantifying the photographs of FIG. 7 were performed by using the Image J (NIH, USA) program and the results thereof were shown in FIG. 8.

corneal angiogenesis [3] = assay: Inhibitory effects against corneal angiogenesis in animal models having corneal damage (subconjunctival injection); format: in vivo, Sprague Dawley rats; conditions: subconjunctival injection 20 μl; KR 0.3 mg/ml, Avastin 10 mg/ml; 1 week after administration
Experimental: (§4) The tests were performed by using Sprague Dawley rats (8 weeks old, male) as animals having corneal damage (15 rats for the experiment group; and 1 rat for normal group, respectively). The corneal damage was induced by applying a cotton swab coated with silver nitrate to the surface of the rat corneas, as as to induce a damage having a diameter of 2 mm in the central cornea. On the third day after inducing the corneal damages, we confirmed the establishment of corneal angiogenesis-inducing models and then subconjunctivally injected a solution (20 μl) prepared by dissolving the compound of Preparation Example 23, i.e., (2R,3R,4S)-6-amino-4-[N-(4-chlorophenyl)-N-(1H-imidazol-2-ylmethyl)amino]-3-hydroxy-2-methyl-2-dimethoxymethyl-3,4-dihydro-2H-1-benzopyran (KR-31831) in phosphate buffered saline (PBS) containing 10% PEG 400, in the concentration of 0.3 mg/ml. In case of the control group, the PBS (20 μl) containing 10% PEG 400 was subconjunctivally injected. As a positive control, a solution (20 μl) prepared by dissolving Avastin (used as an angiogenesis inhibitor) in PBS in the concentration of 10 mg/ml was subconjunctivally injected. The evaluations quantifying the photographs of FIG. 1 were performed by using the Image J (NIH, USA) program and the results thereof were shown in FIG. 2.

corneal angiogenesis [4] = assay: Inhibitory effects against corneal angiogenesis, subconjunctival injection and eye drop-administration; format: in vivo, Sprague Dawley rats; conditions: subconjunctival injection 20 μl plus eye drop 50 μl; KR 0.3 mg/ml, Avastin 10 mg/ml
Experimental: as §4, with “In case of the control group, the PBS (20 μl) containing 10% PEG 400 was subconjunctivally injected. As a positive control, a solution (20 μl) prepared by dissolving Avastin (used as an angiogenesis inhibitor) in PBS in the concentration of 10 mg/ml was subconjunctivally injected.” left out
Except for performing both the subconjunctival injection and the eye drop-administration of (2R,3R,4S)-6-amino-4-[N-(4-chlorophenyl)-N-(1H-imidazol-2-ylmethyl)amino]-3-hydroxy-2-methyl-2-dimethoxymethyl-3,4-dihydro-2H-1-benzopyran and Avastin, the inhibitory effects against angiogenesis were evaluated according to the same manners as in Example 1. […]

Row | Compound | inhibitory effect on normal healing of rat corneal epithelial wound [1] | rate (%) of wound healing compared to vehicle control and KR-31831 (rank) [1] | inhibitory effect on normal healing of rat corneal epithelial wound [2] | FLK-1 expression in the cornea (control group 100%) (VEGF receptor 2 (FLK-1)) | fluorescence intensity at laser-induced damage site (surrounding vessels = 100) (retinal angiogenesis) | corneal angiogenesis in comparison with the corneal angiogenesis (100%) of the control group (corneal angiogenesis [3]) [%] | angiogenesis in comparison with the angiogenesis (100%) of the control group (corneal angiogenesis [4]) [%]
1 | Cc1cc(-c2cc(OC(=O)c3ccccc3)ccc2Cl)cc2nnc(Nc3ccc(OCCN4CCCC4)cc3)nc12 [TG100801] | showed inhibitory effect | the lowest rate (%) of wound healing | showed inhibitory effect | – | – | – | –
2 | Cc1ccc(Nc2nccc(N(C)c3ccc4c(C)n(C)nc4c3)n2)cc1S(N)(=O)=O [Pazopanib] | showed inhibitory effect | the least lowest rate (%) of wound healing among the three but lower than the control | showed inhibitory effect | – | – | – | –
3 | CNC1(C)C2CCC(C2)C1(C)C (stereo not shown) [ATG-003] | showed inhibitory effect | the second lowest rate (%) of wound healing | showed inhibitory effect | – | – | – | –
4 | Avastin: protein drug used in anti-VEGF antibody injection therapy; used as an angiogenesis inhibitor, positive control | – | – | – | about 59% | 46±3 | 66.4±10.6 | 29.3±8.6
